Laboratory results taken from PMC4979471 (Cell Death Discovery, 2015).
Like-named read-outs stand apart in the source and are kept apart here.

Experiments:
Experiment in all cases: Kinase selectivity, P33-radiolabeled assay
Format in all cases: biochemical
Conditions in all cases: 10 μM ATP
ALK4/ACVR1B = target: T1, ALK4/ACVR1B (Homo sapiens, UniProt P36896)
T1 construct: purchased Reaction Biology Corp
T1 sequence (P36896 24-505): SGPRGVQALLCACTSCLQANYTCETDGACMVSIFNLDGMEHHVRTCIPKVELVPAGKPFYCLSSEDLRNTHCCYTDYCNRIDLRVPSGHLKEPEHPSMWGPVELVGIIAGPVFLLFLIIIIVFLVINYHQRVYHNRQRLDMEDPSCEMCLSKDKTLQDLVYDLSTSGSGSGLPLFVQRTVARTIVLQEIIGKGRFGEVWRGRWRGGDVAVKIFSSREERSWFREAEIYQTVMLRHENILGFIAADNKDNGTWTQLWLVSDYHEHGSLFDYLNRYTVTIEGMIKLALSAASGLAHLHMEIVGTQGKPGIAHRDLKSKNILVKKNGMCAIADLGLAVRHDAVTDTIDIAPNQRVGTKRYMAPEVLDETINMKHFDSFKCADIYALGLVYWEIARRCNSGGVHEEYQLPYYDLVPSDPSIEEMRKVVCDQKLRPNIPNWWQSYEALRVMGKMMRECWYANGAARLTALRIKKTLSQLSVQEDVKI
Procedure, shortened: (§1)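 Each enzyme was exposed to 10 μM compound, with duplicate measurements, in reactions containing 10 μM ATP. Numbers are remaining activity as a percent of the vehicle (DMSO) signal.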

CAMKK2 = target: T2, CAMKK2 (Homo sapiens, UniProt Q96RR4)
T2 construct: purchased Reaction Biology Corp
T2 sequence (Q96RR4 whole entry): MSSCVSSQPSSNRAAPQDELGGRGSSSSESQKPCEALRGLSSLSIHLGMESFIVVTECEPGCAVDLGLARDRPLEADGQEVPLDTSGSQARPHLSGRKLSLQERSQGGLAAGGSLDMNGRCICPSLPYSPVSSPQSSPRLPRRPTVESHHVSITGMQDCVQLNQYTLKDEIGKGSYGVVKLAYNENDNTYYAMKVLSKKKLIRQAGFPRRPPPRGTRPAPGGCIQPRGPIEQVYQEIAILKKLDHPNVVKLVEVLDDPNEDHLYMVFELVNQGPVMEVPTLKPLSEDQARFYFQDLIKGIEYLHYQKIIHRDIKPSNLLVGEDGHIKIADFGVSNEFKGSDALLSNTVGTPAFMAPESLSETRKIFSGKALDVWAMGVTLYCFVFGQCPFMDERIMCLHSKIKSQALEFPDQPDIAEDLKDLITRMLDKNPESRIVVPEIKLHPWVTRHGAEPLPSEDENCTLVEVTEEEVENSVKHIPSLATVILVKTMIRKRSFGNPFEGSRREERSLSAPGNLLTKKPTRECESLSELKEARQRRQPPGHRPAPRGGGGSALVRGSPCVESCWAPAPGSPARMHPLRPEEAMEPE
Procedure, shortened: as §1

CDK6/cyclin D1 = target: T3, CDK6/cyclin D1 (Homo sapiens, UniProt Q00534)
T3 construct: purchased Reaction Biology Corp
T3 sequence (Q00534 whole entry): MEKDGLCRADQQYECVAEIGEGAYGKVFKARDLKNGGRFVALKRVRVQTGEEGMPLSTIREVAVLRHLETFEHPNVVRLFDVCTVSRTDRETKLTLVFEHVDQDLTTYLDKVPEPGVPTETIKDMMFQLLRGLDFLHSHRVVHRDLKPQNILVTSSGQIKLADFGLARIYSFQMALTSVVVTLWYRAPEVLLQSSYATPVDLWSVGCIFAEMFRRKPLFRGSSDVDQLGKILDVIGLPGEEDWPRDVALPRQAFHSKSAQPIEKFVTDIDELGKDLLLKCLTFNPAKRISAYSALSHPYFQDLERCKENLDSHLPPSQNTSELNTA
T3 sequence (P24385 whole entry partner): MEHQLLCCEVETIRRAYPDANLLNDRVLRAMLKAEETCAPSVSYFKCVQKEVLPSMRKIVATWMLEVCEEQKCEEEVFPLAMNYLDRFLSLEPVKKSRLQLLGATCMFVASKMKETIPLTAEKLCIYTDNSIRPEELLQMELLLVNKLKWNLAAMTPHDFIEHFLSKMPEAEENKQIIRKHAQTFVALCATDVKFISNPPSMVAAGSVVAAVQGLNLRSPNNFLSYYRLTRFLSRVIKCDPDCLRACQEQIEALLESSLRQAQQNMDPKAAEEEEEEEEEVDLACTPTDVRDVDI
Procedure, shortened: as §1

MNK1 = target: T4, MNK1 (Homo sapiens, UniProt Q9BUB5)
T4 construct: purchased Reaction Biology Corp
T4 sequence (Q9BUB5 whole entry): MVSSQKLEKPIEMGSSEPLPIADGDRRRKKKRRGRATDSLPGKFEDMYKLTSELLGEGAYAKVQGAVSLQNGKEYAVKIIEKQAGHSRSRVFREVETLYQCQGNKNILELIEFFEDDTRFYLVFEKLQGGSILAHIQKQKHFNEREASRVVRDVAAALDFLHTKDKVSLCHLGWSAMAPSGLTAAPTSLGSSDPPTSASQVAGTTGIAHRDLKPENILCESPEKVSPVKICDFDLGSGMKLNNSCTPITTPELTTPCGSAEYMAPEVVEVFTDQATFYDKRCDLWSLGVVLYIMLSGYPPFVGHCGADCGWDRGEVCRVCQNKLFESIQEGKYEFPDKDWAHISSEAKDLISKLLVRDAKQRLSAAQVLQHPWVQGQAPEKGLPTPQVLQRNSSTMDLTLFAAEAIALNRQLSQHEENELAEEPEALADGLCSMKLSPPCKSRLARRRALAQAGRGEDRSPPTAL
Procedure, shortened: as §1

PKAcg = target: T5, PKAcg (Homo sapiens, UniProt P22612)
T5 construct: purchased Reaction Biology Corp
T5 sequence (P22612 whole entry): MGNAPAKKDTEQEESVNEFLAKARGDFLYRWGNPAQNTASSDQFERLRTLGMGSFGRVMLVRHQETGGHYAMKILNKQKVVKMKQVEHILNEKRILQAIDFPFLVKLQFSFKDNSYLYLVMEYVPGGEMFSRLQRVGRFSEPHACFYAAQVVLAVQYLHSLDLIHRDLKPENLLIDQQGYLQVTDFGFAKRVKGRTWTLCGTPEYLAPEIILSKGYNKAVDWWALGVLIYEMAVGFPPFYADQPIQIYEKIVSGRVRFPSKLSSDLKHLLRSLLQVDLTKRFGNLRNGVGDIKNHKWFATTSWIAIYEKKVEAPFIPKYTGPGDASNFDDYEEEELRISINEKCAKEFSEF
Procedure, shortened: as §1

TRKA = target: T6, TRKA (Homo sapiens, UniProt P04629)
T6 construct: purchased Reaction Biology Corp
T6 sequence (P04629 33-796): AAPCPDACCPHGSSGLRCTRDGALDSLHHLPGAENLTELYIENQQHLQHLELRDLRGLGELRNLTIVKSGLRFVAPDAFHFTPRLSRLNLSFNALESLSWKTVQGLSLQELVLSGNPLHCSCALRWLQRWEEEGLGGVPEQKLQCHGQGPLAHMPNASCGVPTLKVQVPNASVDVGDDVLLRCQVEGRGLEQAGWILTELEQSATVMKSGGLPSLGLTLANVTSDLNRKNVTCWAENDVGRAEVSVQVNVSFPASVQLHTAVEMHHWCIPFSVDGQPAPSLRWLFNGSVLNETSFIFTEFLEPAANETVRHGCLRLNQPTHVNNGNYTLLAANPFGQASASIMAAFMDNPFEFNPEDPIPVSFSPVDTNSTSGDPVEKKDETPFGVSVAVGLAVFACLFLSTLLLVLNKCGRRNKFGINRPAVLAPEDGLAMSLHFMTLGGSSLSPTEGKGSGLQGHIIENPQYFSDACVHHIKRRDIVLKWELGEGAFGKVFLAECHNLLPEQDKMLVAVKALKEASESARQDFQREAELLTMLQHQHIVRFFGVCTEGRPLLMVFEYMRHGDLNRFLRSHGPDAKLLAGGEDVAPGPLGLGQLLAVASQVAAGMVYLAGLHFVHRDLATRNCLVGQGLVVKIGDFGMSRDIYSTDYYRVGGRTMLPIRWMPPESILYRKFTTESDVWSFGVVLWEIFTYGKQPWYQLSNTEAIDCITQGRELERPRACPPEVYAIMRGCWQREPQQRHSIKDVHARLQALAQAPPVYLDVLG
Procedure, shortened: as §1

ULK3 = target: T7, ULK3 (Homo sapiens, UniProt Q6PHR2)
T7 construct: purchased Reaction Biology Corp
T7 sequence (Q6PHR2 1-472): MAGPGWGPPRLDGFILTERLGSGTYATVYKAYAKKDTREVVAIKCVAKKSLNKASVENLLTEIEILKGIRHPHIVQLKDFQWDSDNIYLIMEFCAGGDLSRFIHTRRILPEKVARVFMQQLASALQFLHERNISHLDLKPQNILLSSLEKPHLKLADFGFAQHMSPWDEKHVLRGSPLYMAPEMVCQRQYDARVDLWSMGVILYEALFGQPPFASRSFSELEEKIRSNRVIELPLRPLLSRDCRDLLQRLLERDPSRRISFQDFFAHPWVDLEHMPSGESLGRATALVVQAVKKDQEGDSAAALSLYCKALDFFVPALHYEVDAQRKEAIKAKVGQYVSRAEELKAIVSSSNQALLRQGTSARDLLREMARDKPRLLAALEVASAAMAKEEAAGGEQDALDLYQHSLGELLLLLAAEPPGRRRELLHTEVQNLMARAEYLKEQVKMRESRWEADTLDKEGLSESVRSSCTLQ
Procedure, shortened: as §1

c-MER = target: T8, c-MER (Homo sapiens, UniProt Q12866)
T8 construct: purchased Reaction Biology Corp
T8 sequence (Q12866 21-999): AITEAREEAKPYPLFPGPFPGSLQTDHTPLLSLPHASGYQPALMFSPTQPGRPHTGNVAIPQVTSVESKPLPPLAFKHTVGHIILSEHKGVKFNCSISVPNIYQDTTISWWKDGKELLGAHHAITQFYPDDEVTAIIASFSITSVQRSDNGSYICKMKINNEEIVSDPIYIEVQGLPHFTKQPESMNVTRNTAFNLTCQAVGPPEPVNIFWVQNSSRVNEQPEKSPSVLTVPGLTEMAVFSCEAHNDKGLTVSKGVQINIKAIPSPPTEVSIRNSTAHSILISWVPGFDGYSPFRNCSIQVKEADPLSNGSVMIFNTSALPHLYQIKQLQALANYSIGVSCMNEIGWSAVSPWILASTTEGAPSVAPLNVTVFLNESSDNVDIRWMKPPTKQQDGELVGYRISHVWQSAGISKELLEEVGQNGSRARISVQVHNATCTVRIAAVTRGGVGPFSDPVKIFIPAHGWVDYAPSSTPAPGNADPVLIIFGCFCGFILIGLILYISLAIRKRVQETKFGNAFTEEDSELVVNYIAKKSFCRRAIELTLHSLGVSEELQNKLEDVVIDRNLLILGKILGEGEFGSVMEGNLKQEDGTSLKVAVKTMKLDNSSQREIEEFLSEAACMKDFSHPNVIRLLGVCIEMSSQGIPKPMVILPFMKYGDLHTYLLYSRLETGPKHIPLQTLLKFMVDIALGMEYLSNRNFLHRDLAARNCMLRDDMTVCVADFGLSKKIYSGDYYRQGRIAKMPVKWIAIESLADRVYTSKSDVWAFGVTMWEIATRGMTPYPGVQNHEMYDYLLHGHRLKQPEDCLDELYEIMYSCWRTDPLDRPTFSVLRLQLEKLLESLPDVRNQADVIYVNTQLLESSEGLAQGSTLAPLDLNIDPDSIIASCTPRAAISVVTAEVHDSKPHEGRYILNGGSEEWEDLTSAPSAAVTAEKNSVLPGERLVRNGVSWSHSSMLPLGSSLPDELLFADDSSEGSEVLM
Procedure, shortened: as §1

[1] = read-out: % Enzyme Activity (relative to DMSO controls) AVG
[2] = read-out: % Enzyme Activity (relative to DMSO controls) Data 1
[3] = read-out: % Enzyme Activity (relative to DMSO controls) Data 2

With `CC(C)(C)C(=O)N1N=CC[C@H]1c1ccccc1` [GSK′963] the remaining activity at 10 µM (ALK4/ACVR1B; [1]) was 103%, the remaining activity at 10 µM (ALK4/ACVR1B; [2]) was 104% and the remaining activity at 10 µM (ALK4/ACVR1B; [3]) was 102%. It also gave a remaining activity at 10 µM (CAMKK2; [1]) of 83%, a remaining activity at 10 µM (CAMKK2; [2]) of 86.1% and a remaining activity at 10 µM (CAMKK2; [3]) of 80%. The remaining activity at 10 µM (CDK6/cyclin D1; [1]) was 93.7%, the remaining activity at 10 µM (CDK6/cyclin D1; [2]) was 94.2% and the remaining activity at 10 µM (CDK6/cyclin D1; [3]) was 93.2%. For the same molecule, the remaining activity at 10 µM (MNK1; [1]) was 117%, the remaining activity at 10 µM (MNK1; [2]) was 111% and the remaining activity at 10 µM (MNK1; [3]) was 122%. It also gave a remaining activity at 10 µM (PKAcg; [1]) of 122%, a remaining activity at 10 µM (PKAcg; [2]) of 123% and a remaining activity at 10 µM (PKAcg; [3]) of 122%. It also gave a remaining activity at 10 µM (TRKA; [1]) of 99.8%, a remaining activity at 10 µM (TRKA; [2]) of 98.2% and a remaining activity at 10 µM (TRKA; [3]) of 101%. For the same molecule, the remaining activity at 10 µM (ULK3; [1]) was 91.6%, the remaining activity at 10 µM (ULK3; [2]) was 92.2% and the remaining activity at 10 µM (ULK3; [3]) was 90.9%. It also gave a remaining activity at 10 µM (c-MER; [1]) of 94.8%, a remaining activity at 10 µM (c-MER; [2]) of 94.5% and a remaining activity at 10 µM (c-MER; [3]) of 95.1%.
